Test results from the supplement of paper PMC10307832.

What was measured:
Adavosertib + Navitoclax = compound: C=CCn1c(=O)c2cnc(Nc3ccc(N4CCN(C)CC4)cc3)nc2n1-c1cccc(C(C)(C)O)n1 [Adavosertib] + CC1(C)CCC(c2ccc(Cl)cc2)=C(CN2CCN(c3ccc(C(=O)NS(=O)(=O)c4ccc(N[C@H](CCN5CCOCC5)CSc5ccccc5)c(S(=O)(=O)C(F)(F)F)c4)cc3)CC2)C1 [Navitoclax] (partner 0.5 µM); assay: relative viability (nuclei count vs DMSO), 5 days (fraction); higher = more cells survive
Method in brief: (§1)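 Nuclei were stained with Hoechst during a one-step fixation (final 0.05% Triton X-100, 1% formaldehyde, 1 ug/ml Hoechst) carried out 5 days after dosing, then counted on 4× images. The cells, lung cancer lines in 1536-well plates, had been dosed by pin tool the day after seeding with one drug alone or a fixed anchor-drug dose plus five library-drug doses (not always all listed) in √10 steps. Relative viability is the nuclei count in treated wells divided by that in vehicle wells, and each value is the median of duplicate plates.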

Nelarabine + Foretinib = compound: COc1nc(N)nc2c1ncn2[C@@H]1O[C@H](CO)[C@@H](O)[C@@H]1O [Nelarabine] + COc1cc2c(Oc3ccc(NC(=O)C4(C(=O)Nc5ccc(F)cc5)CC4)cc3F)ccnc2cc1OCCCN1CCOCC1 [Foretinib] (partner 0.25 µM); assay: as above
Method in brief: as §1

Cell Line	relative viability (Adavosertib + Navitoclax; first compound 0.01 µM)	relative viability (Adavosertib + Navitoclax; first compound 0.03162 µM)	relative viability (Adavosertib + Navitoclax; first compound 0.1 µM)	relative viability (Adavosertib + Navitoclax; first compound 0.3162 µM)	relative viability (Nelarabine + Foretinib; first compound 0.01 µM)	relative viability (Nelarabine + Foretinib; first compound 0.03162 µM)	relative viability (Nelarabine + Foretinib; first compound 0.1 µM)	relative viability (Nelarabine + Foretinib; first compound 0.3162 µM)	relative viability (Nelarabine + Foretinib; first compound 1 µM)
SK-MES-1	1.17	1.25	1.31	1.11	1.07	0.932	0.946	0.949	1.18
NCI-H2170	0.605	0.57	0.482	0.313	1.21	0.974	0.934	1.02	1.07
UMC-11	0.311	0.287	0.331	0.321	1.23	0.961	0.963	1.11	0.972
HCC-15	0.699	0.712	0.801	0.821	1.16	0.996	0.983	1.12	0.992
HCC-78	0.81	0.686	0.894	0.79	0.607	0.538		0.527	0.617
NCI-H647	1.15	1.17	1.12	0.985	1.22	1.02	1.26	1.26	1.37
NCI-H2009	1.14	1.18	1.21	1.23	1.19	1.2	1.31	1.22	1.27
NCI-H520	1.12	1.1	1.09	0.791	1.06	0.799	0.95	0.789	0.676
RERF-LC-KJ	1.01	0.751	0.828	0.952	1.1	1.07	0.923	0.858	0.938
NCI-H441	0.645	0.741	0.64	0.401	0.98	0.977	0.918	0.933	0.943
NCI-H1666	0.927	0.83	0.935	0.673	1.05	1.02	0.918	1	1.03
NCI-H1755	0.983	1	1.02	0.926	0.939	0.82	0.928	1.05	1.01
COR-L23	1.14	1.03	1.14	0.293	1.23	1.02	0.917	0.992	0.964
SK-LU-1	0.759	0.594	0.989	0.238	1.03	0.584	0.951	0.896	1.03
SW 900					1.02	0.749	0.934	0.947	0.832
PC-3 [JPC-3]	0.842	0.782	0.797	0.716	1.14	0.99	1.04	1.03	1.09
EKVX	0.927	0.929	0.944	1.2	0.966	0.803	0.732	0.614	0.777
NCI-H322M		1.25	1.12	0.953	0.972	0.948	0.816	0.939	0.976
NCI-H2087	1.09	1.14	1.09	0.937	1.43	0.917	1.06	1.01	1.11
NCI-H2405	0.869	1.01	0.98	0.996	1.07	1.04	0.95	0.988	1.03
NCI-H1915	0.831	0.766	0.804	0.786	1.13	1.03	1.16	1.1	1.12
NCI-H1395	1.15	1.17	1.25	0.986	1.07	0.923	1.08	1.01	1.01
LOU-NH91	0.718	0.688	0.663	0.53	0.959	0.938	0.932	0.893	0.977
SW 1573	1.07	0.988	1.29	0.926	0.889	1.09	0.882	0.952	0.86
NCI-H23	0.89	0.677	0.938	0.368	1.13	0.862	0.94	1.09	0.948
NCI-H1993	1.02	0.977	1.01	0.934	0.845	0.712	0.737	0.831	0.708

Cell Line	relative viability (Adavosertib + Navitoclax; first compound 0.01 µM)	relative viability (Adavosertib + Navitoclax; first compound 0.03162 µM)	relative viability (Adavosertib + Navitoclax; first compound 0.1 µM)	relative viability (Adavosertib + Navitoclax; first compound 0.3162 µM)	relative viability (Nelarabine + Foretinib; first compound 0.01 µM)	relative viability (Nelarabine + Foretinib; first compound 0.03162 µM)	relative viability (Nelarabine + Foretinib; first compound 0.1 µM)	relative viability (Nelarabine + Foretinib; first compound 0.3162 µM)	relative viability (Nelarabine + Foretinib; first compound 1 µM)
HARA	1.11	1.11	1.13	1.1	1	1.07	0.834	1.23	1.03
HCC-366	0.983	1.07	1.12	1.08	1.03	0.717	0.942	0.974	0.895
COR-L 105	0.886	0.72	0.746	0.617	0.953	0.991	1.26	1.08	0.967
HCC-44	1.02	1.01	1.01	1.06					
LXF-289	0.959	1.03	0.992	1.03	1.07	0.922	0.988	1.07	0.969
NCI-H727	0.468	0.566	0.678	0.372	0.881	0.97	0.912	0.772	0.945
NCI-H2085	1.28	1.05	1.06	1.11	0.96	1.04	0.76	0.881	1.06
A-427	0.94	0.908	0.959	0.895	1.11	0.97	0.972	1.13	0.954
LC-2-ad	0.452	0.411	0.392	0.216	1	1.01	0.848	0.885	0.858
EBC-1	0.416	0.413	0.448	0.205	0.122	0.111	0.146	0.0922	0.105
LU99A	0.895	0.733	0.901	0.652	0.934	0.683	0.706	0.801	0.889
201T	1.24	1.18	1.26	1.18	1.46		1.04	1.03	1.05
NCI-H650					1.09	1.04	0.968	0.886	1.13
NCI-H1563					0.809	0.967	0.811	0.955	0.905
NCI-H2023	1.03	0.959	0.912	0.6	0.942	0.737	0.876	0.899	0.818
LK-2	0.98	0.882	0.989	0.808	1.3		1.19	1.17	1.22
IA-LM	0.821	0.742	0.976	0.668	1.37	1.01	1.23	1.18	1.27
BEN	0.0632	0.0724	0.0727	0.0601	0.583	0.744	0.655	0.638	0.556
NCI-H1299	1.08	1.03	1.06	1.06	1.15	1.08	1.13	1.12	1.13
EPLC-272H	1.09	0.987	0.983	0.861	0.81	0.503	0.655	0.66	0.584
NCI-H1975	1.17	1.25	1.01	0.483	1.01	0.892	1.14	0.986	1.07
NCI-H1703	1.27	0.877	1.11	0.157	0.388	0.405	0.332	0.289	0.395
HCC-827	1.06	1.07	1.18	0.993	1.01	0.925	0.87	0.822	0.716
LCLC-97TM1		0.372	0.473	0.257	0.996	0.792	1.01	0.922	0.935
Calu-6	0.819	0.898	0.88	0.239	1.01	0.826	0.9	0.959	0.928
NCI-H2126	0.882	0.871	0.871	0.894	1.24	1.13	1.18	1.41	1.08

Cell Line	relative viability (Adavosertib + Navitoclax; first compound 0.01 µM)	relative viability (Adavosertib + Navitoclax; first compound 0.03162 µM)	relative viability (Adavosertib + Navitoclax; first compound 0.1 µM)	relative viability (Adavosertib + Navitoclax; first compound 0.3162 µM)	relative viability (Nelarabine + Foretinib; first compound 0.01 µM)	relative viability (Nelarabine + Foretinib; first compound 0.03162 µM)	relative viability (Nelarabine + Foretinib; first compound 0.1 µM)	relative viability (Nelarabine + Foretinib; first compound 0.3162 µM)	relative viability (Nelarabine + Foretinib; first compound 1 µM)
PC-14	1.06	0.963	1.02	0.528	1.04	1.11	1.06	1.02	0.997
NCI-H1355	0.996	0.848	0.987	0.852	1.05	0.984	0.947	1	1.03
NCI-H460	0.942	1.18	1.45	0.861	1.49	1.23	1.13	1.23	1.06
NCI-H1651	0.993	1.13	1.17	0.748	1.12	0.782	0.948	0.718	0.912
NCI-H1650	1.15	1.26	1.25	1.1	1.13	1.16	1.11	1.37	1.19
NCI-H1734	0.866	0.818	0.877	0.821	1.01	0.818	0.83	0.949	0.846
NCI-H661					1.15	1.2	1.02	1.05	1.06
H3255	0.374	0.473	0.508	0.447		1.12	0.828	0.938	0.923
NCI-H596	0.897	1.01	1.06	0.742	0.829	0.917	0.773	0.848	0.84
NCI-H1437	1.05	1.13	1.16	1.11	1.4	1.18	1.23	1.25	1.15
NCI-H2228	0.691	1.41	0.885	0.305	0.977	1.02		0.956	0.86
CAL-12T	1.03	1.33	1.19	1.02	1.3	1.14	1.15	1.09	1.04
LCLC-103H					0.958	0.825	0.72	0.815	0.79
NCI-H1623					0.971	0.818	0.879	0.757	0.834
NCI-H1792	0.529	0.659	0.655	0.643					
NCI-H2347	0.811	0.804	0.954	0.791	0.838		0.528	0.65	0.89
NCI-H3122	1.07	1.02	1	1.01	1.11	0.771		1.05	0.962
NCI-H1793	0.338	0.405	0.422	0.425	0.84	0.747	0.709	0.731	0.713
NCI-H358					0.854	0.666	0.622	0.854	0.762
NCI-H2342					0.974	0.887	0.875	0.906	1.01
A549	1.21	1.26	1.26	0.901	1.11	0.853	0.972	1.01	0.98
HOP-62	1.12	1.16	1.4	1.35	1.08	1	1.12	1.05	1.05
NCI-H1944	1.05	1.02	1.07	1.02	1.09	0.896	0.776	0.917	0.834
NCI-H838	1.16	1.11	1.18	1.13	1.24	0.937	1.08	1.08	1.09
ABC-1					1.11	0.862	0.931	1.05	0.94
